Source: patent US20260034094A1, “COMPOSITIONS AND METHODS FOR INDUCING FERROPTOSIS” (Kojin Therapeutics, Inc., priority 2022, published 2026)
“And” between values parts separate entries of the source, which are not always exact repeats. Equal values may be shown once. Read-outs that look alike come from different tables or passages of the source.

Assays:
[1] = target: human recombinant GCL (Homo sapiens (Human), UniProt P48506); assay: GCL enzyme profiling assay (ADP-Glo luminescence); assay type: biochemical
Chain of human recombinant GCL (P48506 whole entry): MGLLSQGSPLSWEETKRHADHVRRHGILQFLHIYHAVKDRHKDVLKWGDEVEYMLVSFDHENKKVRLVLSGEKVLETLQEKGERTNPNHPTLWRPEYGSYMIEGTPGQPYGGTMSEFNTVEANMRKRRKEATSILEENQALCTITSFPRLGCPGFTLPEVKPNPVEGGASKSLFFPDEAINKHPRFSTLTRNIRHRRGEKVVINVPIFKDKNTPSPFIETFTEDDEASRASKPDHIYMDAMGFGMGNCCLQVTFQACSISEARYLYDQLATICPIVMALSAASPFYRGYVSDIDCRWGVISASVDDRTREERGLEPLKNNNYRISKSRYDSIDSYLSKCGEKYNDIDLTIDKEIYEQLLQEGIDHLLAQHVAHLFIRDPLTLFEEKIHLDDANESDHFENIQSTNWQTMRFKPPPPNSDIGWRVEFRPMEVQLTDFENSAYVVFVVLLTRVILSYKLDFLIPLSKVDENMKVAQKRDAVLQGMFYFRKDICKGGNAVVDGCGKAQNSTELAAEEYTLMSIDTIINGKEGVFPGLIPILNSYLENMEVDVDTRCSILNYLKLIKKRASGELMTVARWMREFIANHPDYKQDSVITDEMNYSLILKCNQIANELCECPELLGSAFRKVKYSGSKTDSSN
Method: The GCL enzyme assay was run in 50 mM HEPES, pH 7.5, containing 150 mM NaCl, 30 mM MgCl2, 0.5 mM EDTA, 1 mM DTT, 0.1 mg/mL BSA, and 0.02% or in the present case 0.2% F-127 in a total assay volume of 10 μL or 10 mL. Compound in pure DMSO was stamped in assay plates (Greiner black 384-well) or appropriate containers using a D300e digital dispenser (TECAN) and the final DMSO concentration was normalized to 1%. A 5 mL, or in the present case, 5 μL mixture of human recombinant GCL (final concentration: 5 nM) and ATP (final concentration: 0.6 mM) was added and the solution was incubated at room temperature (22° C.) for 1 h. The GCL enzyme reaction was initiated by addition of a 5 μL mixture of mono g-glutamate or in the present example, monosodium glutamate (final concentration: 1 mM) and a-aminobutyrate or α-aminobutyrate (final concentration: 1.2 mM). The reaction was stopped after 1 h or in the present case, 2 h by addition of 5 mL, or in the present case, 5 μL ADP GLO Reagent (Promega). The resulting solution was incubated for 2 h at room temperature. This was then followed by addition of 5 mL, or in the present case, 5 μL ADP GLO Detection. After incubation at room temperature for 30 min, the plates were read on a plate reader (PheraStar) using a luminescence protocol to quantify the GCL enzyme activity from each reaction solution. The data was analyzed using a four-parameter logistic equation to calculate IC50.

[2] = tested on: RKN cells; assay: RKN cell profiling assay (cell viability, CellTiter-Glo); assay type: cell-based
Method: RKN cells were suspended in assay medium (F-12 medium supplemented with 10% FBS and penicillin/streptomycin) and seeded at 1,000 cells per well (30 μL total volume) in opaque white 384-well plates (Corning). Cells were allowed to adhere for 24 h at 37° C. (95% humidity, 5% CO2) and then exposed to compounds disclosed herein for 72 h, or in the present case, 96 h. DMSO stock solutions of compounds were added to cells using a D300e Digital Dispenser (Tecan). The final DMSO concentration in each well was normalized to 0.5% (v/v) after compound treatment. Cell viability was measured using CellTiter-Glo (Promega). After incubation for 15 min at room temperature, luminescence was measured using a PHERAstar FSX microplate reader (BMG Labtech). Ferroptosis rescue experiments were performed as described previously using cells treated with ferrostatin-1 (fer-1, 1.5 μM) when seeding assay plates. Dose-response data were analyzed to determine EC50 values with GraphPad Prism 9 software using a four-parameter logistic equation or CDD Vault (Collaborative Drug Discovery) using the Levenberg-Marquardt algorithm.

[3] = human recombinant GCL 5 nM, 1 h preincubation with ATP, read-out: GCL IC50
[4] = 96 h, 96 h exposure, read-out: Cell Killing EC50
[5] = human recombinant GCL, ADP-Glo, read-out: GCL IC50
[6] = cell viability, read-out: Cell Killing EC50

| SMILES | IC50 [1, 3] | EC50 [2, 4] [mM] | IC50 [1, 5] [mM] | other results |
| --- | --- | --- | --- | --- |
| CC(C)(C)CC[S@@](=N)(=O)CC[C@H](N)C(=O)Nc1cccnc1 (single isomer, unassigned) [Compound 102] | > 2 mM | ≥ 1 |  |  |
| CC(C)(C)CC[S@](=N)(=O)CC[C@H](N)C(=O)Nc1cccnc1 (single isomer, unassigned) [Compound 103] | > 2 mM | < 1 |  |  |
| N=S(=O)(CCC(c1ccc(-c2ccccc2Cl)cc1)C(F)(F)F)CC[C@H](N)C(=O)O (single isomer, unassigned) [Compound 218] |  |  | 0.02 to 2 | EC50 [2, 6]: ≥ 1 mM |
| C[C@@](O)(CCS(=N)(=O)CC[C@H](N)C(=O)O)C(F)(F)F (single isomer, unassigned) [Compound 322] |  |  | ≤ 0.02 | EC50 [2, 6]: < 1 mM |
| C[C@@](O)(CCS(=N)(=O)CC[C@H](N)C(=O)O)C(F)(F)F (single isomer, unassigned) [Compound 323] |  |  | > 2 | EC50 [2, 6]: ≥ 1 mM |
| C[C@](O)(CCS(=N)(=O)CC[C@H](N)C(=O)O)C(F)(F)F (single isomer, unassigned) [Compound 324] |  |  | ≤ 0.02 | EC50 [2, 6]: < 1 mM |
| C[C@](O)(CCS(=N)(=O)CC[C@H](N)C(=O)O)C(F)(F)F (single isomer, unassigned) [Compound 325] |  |  | > 2 | EC50 [2, 6]: ≥ 1 mM |
| N=S(=O)(CC[C@H](N)C(=O)O)CC[C@H](O)C(F)(F)F (single isomer, unassigned) [Compound 326] |  |  | ≤ 0.02 | EC50 [2, 6]: < 1 mM |
| N=S(=O)(CC[C@H](N)C(=O)O)CC[C@H](O)C(F)(F)F (single isomer, unassigned) [Compound 327] |  |  | > 2 | EC50 [2, 6]: ≥ 1 mM |
| N=S(=O)(CC[C@@H](O)C(F)(F)F)CC[C@H](N)C(=O)O (single isomer, unassigned) [Compound 328] |  |  | ≤ 0.02 | EC50 [2, 6]: < 1 mM |
| N=S(=O)(CC[C@@H](O)C(F)(F)F)CC[C@H](N)C(=O)O (single isomer, unassigned) [Compound 329] |  |  | > 2 | EC50 [2, 6]: ≥ 1 mM |
| N=[S@](=O)(CC[C@H](N)C(=O)O)CCC(O)(c1ccccc1)C(F)(F)F (single isomer, unassigned) [Compound 345] |  |  | > 2 | EC50 [2, 6]: ≥ 1 mM |
| N=[S@@](=O)(CC[C@H](N)C(=O)O)CCC1(c2ccccc2)CCC1 (single isomer, unassigned) [Compound 392] |  |  | ≤ 0.02 | EC50 [2, 6]: < 1 mM |
| N=S(=O)(CC[C@H](N)C(=O)O)CCC(O)(c1ccc(-c2ccc(Cl)cc2Cl)cn1)C(F)(F)F (single isomer, unassigned) [Compound 464] |  |  | 0.02 to 2 | EC50 [2, 6]: ≥ 1 mM |
| N=S(=O)(CCc1ccc(Cl)cc1)CC[C@H](N)C(=O)O (stereo partly drawn) [Compound 1, (2S)-2-amino-4-(2-(4-chlorophenyl)ethylsulfonimidoyl)butanoic acid] | ≤ 0.02 mM | ≥ 1 |  |  |
| N=S(=O)(CCc1ccccc1)CC[C@H](N)C(=O)O (stereo partly drawn) [Compound 2, (2S)-2-amino-4-(2-phenylethylsulfonimidoyl)butanoic acid] | 0.02 to 2 mM | ≥ 1 |  |  |
| N=S(=O)(CCc1cccc(C(F)(F)F)c1)CC[C@H](N)C(=O)O (stereo partly drawn) [Compound 3] | 0.02 to 2 mM | ≥ 1 |  |  |
| N=S(=O)(CCc1cccc(OC(F)(F)F)c1)CC[C@H](N)C(=O)O (stereo partly drawn) [Compound 4] | 0.02 to 2 mM | ≥ 1 |  |  |
| N=S(=O)(CCc1ccc(F)c(F)c1)CC[C@H](N)C(=O)O (stereo partly drawn) [Compound 5] | ≤ 0.02 mM | ≥ 1 |  |  |
| N=S(=O)(CCc1ccncc1)CC[C@H](N)C(=O)O (stereo partly drawn) [Compound 6] | > 2 mM and 0.02 to 2 mM | ≥ 1 |  | IC50 ([1]; human recombinant GCL 5 nM, 1 h preincubation with ATP, read-out: GCL IC50 (mM), individual values in parentheses): 2.27 mM and > 1.62 mM |
| N=S(=O)(CC[C@H](N)C(=O)O)CCn1ccnc1 (stereo partly drawn) [Compound 7] | > 2 mM |  |  |  |
| N=S(=O)(CCc1cn[nH]c1)CC[C@H](N)C(=O)O (stereo partly drawn) [Compound 8] | 0.02 to 2 mM | ≥ 1 |  |  |
| N=S(=O)(CCc1cnoc1)CC[C@H](N)C(=O)O (stereo partly drawn) [Compound 9] | 0.02 to 2 mM | < 1 |  |  |

| SMILES | IC50 [1, 3] | EC50 [2, 4] [mM] | IC50 [1, 5] [mM] | other results |
| --- | --- | --- | --- | --- |
| N=S(=O)(CCc1nccs1)CC[C@H](N)C(=O)O (stereo partly drawn) [Compound 10] | > 2 mM | ≥ 1 |  |  |
| Cc1ccc(CCS(=N)(=O)CC[C@H](N)C(=O)O)cc1 (stereo partly drawn) [Compound 11] | ≤ 0.02 mM | ≥ 1 |  |  |
| COc1ccc(CCS(=N)(=O)CC[C@H](N)C(=O)O)cc1 (stereo partly drawn) [Compound 12] | 0.02 to 2 mM | ≥ 1 |  |  |
| N=S(=O)(CCc1ccc(Cl)c(Cl)c1)CC[C@H](N)C(=O)O (stereo partly drawn) [Compound 13] | ≤ 0.02 mM | ≥ 1 |  |  |
| Cc1ccccc1OCCS(=N)(=O)CC[C@H](N)C(=O)O (stereo partly drawn) [Compound 14] | 0.02 to 2 mM |  |  |  |
| N=S(=O)(CCc1ccccc1C(F)(F)F)CC[C@H](N)C(=O)O (stereo partly drawn) [Compound 15] | ≤ 0.02 mM | ≥ 1 |  | EC50 ([2]; 96 h, 96 h exposure, read-out: Cell Killing EC50 (mM), individual values in parentheses): 1.2 mM; EC50 ([2]; 96 h exposure, read-out: Cell Killing EC50 (mM), individual values in parentheses): 0.97 mM |
| N=S(=O)(CCc1cccc(F)c1F)CC[C@H](N)C(=O)O (stereo partly drawn) [Compound 16] | ≤ 0.02 mM | < 1 |  |  |
| N=S(=O)(CCc1nc(-c2ccccc2)cs1)CC[C@H](N)C(=O)O (stereo partly drawn) [Compound 17] | 0.02 to 2 mM | ≥ 1 |  |  |
| N=S(=O)(CCc1cccc2c1OC(F)(F)O2)CC[C@H](N)C(=O)O (stereo partly drawn) [Compound 18] | 0.02 to 2 mM | ≥ 1 |  |  |
| N=S(=O)(CCc1ccccc1Cl)CC[C@H](N)C(=O)O (stereo partly drawn) [Compound 19] | ≤ 0.02 mM | < 1 |  |  |
| COc1ccccc1CCS(=N)(=O)CC[C@H](N)C(=O)O (stereo partly drawn) [Compound 20] | 0.02 to 2 mM | ≥ 1 |  |  |
| N=S(=O)(CCc1ccccc1O)CC[C@H](N)C(=O)O (stereo partly drawn) [Compound 21] | ≤ 0.02 mM | < 1 |  |  |
| N=S(=O)(CCc1ccccc1F)CC[C@H](N)C(=O)O (stereo partly drawn) [Compound 23] | 0.02 to 2 mM | ≥ 1 |  |  |
| N=S(=O)(CCc1cccc(F)c1)CC[C@H](N)C(=O)O (stereo partly drawn) [Compound 24] | ≤ 0.02 mM | ≥ 1 |  |  |
| N=S(=O)(CCc1cccc(Cl)c1Cl)CC[C@H](N)C(=O)O (stereo partly drawn) [Compound 25] | 0.02 to 2 mM | ≥ 1 |  |  |
| Cc1c(F)cccc1CCS(=N)(=O)CC[C@H](N)C(=O)O (stereo partly drawn) [Compound 26] | ≤ 0.02 mM | < 1 |  |  |
| Cc1cccc(CCS(=N)(=O)CC[C@H](N)C(=O)O)c1C (stereo partly drawn) [Compound 27] | 0.02 to 2 mM | ≥ 1 |  |  |
| N#Cc1ccccc1CCS(=N)(=O)CC[C@H](N)C(=O)O (stereo partly drawn) [Compound 30] | ≤ 0.02 mM | ≥ 1 |  |  |
| N=S(=O)(CCCc1cn[nH]c1)CC[C@H](N)C(=O)O (stereo partly drawn) [Compound 50, (2S)-4-(3-(1H-pyrazol-4-yl)propylsulfonimidoyl)-2-aminobutanoic acid] | 0.02 to 2 mM |  |  |  |
| CC(COC(=O)c1ccccc1)OC(=O)[C@@H](N)CCS(=N)(=O)CCC(C)(C)C (stereo partly drawn) [Compound 98] | 0.02 to 2 mM |  |  |  |
| N=S(=O)(CCC1CCO1)CC[C@H](N)C(=O)O (stereo partly drawn) [Compound 304] |  |  | 0.02 to 2 |  |
| C#CCNC(=O)[C@@H](N)CCS(=N)(=O)CCCC (stereo partly drawn) [compound 493] |  |  | > 2 |  |
